Reference: patent US9738642B2, “Triazolopyridine ether derivatives and their use in neurological and pyschiatric disorders” (BRISTOL-MYERS SQUIBB COMPANY, priority 2013, dated 2017)
Structures can show the parent of a compound that is named as a salt.

biological target: T1, human mGluR2 (Homo sapiens, UniProt Q14416); test: mGluR2 cAMP assay; assay type: cell-based; details: EC50 (nM), activity in mGluR2 cAMP assay, clonally expressed human mGluR2 in HEK293; 1 μM forskolin, 1 μM LY-341495, 30 min; CISBIO cAMP kit
T1 construct: expressed in transfected cells; host or cells: HEK293 clonal line
Method: On the day of the assay, media was removed, cells washed with PBS, cells harvested and pelleted by centrifugation. Cell pellets were resuspended in stimulation buffer without forskolin and counted. […] A standard curve was created using a top concentration of cAMP of 1 μM in the stimulation buffer, 1:3 dilutions over 14 points in the absence of cells. […] In house software converted the fluorescence value ratios to units of cAMP concentration, which is then used to calculate % inhibition for each test compound. MGluR2 cAMP Assay Materials and Methods. […] Buffer without forskolin was used as a negative control. Solutions of D2 and cryptate detection reagents from the CISBIO dynamic cAMP kit (62AM4PEJ) were diluted 1:40 in lysis buffer. Lysis buffer consisted of 50 mM Phosphate Buffer pH 7.0, 800 mM Potassium Fluoride, 0.2% BSA, and 1.0% Triton. Assay reaction was terminated by addition of detection reagents in lysis buffer. One hour later, plates were read on a PE Viewlux. Data was extracted, and concentration response curves generated by fitting the data to a standard 4 parameter logistic equation from which EC50 values were determined.

T1 sequence (Q14416 19-872): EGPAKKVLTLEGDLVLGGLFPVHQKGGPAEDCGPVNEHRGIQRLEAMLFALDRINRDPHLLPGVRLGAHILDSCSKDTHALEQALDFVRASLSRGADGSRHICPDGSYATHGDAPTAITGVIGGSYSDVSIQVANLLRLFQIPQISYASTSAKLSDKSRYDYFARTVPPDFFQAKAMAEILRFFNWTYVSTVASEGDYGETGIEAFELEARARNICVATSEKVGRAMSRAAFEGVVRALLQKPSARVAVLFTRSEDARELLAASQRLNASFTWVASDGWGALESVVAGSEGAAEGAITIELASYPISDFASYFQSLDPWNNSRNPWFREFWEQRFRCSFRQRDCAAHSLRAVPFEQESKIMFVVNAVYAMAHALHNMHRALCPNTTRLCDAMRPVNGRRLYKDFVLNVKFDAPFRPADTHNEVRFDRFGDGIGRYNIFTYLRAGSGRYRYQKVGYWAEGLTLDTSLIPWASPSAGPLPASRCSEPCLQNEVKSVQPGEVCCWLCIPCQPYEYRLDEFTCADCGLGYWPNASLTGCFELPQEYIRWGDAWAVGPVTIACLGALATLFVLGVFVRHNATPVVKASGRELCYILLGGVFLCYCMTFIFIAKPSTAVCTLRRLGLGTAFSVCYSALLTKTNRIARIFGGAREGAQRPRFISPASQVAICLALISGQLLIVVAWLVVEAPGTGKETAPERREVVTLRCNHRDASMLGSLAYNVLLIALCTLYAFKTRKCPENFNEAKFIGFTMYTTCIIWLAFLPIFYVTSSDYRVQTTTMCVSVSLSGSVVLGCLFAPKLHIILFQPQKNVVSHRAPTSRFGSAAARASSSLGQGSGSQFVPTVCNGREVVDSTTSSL

SMILES | EC50
Fc1ccc([C@H]2C[C@@H]2COc2ccn3c(CC4CC4)nnc3c2C(F)(F)F)cc1 (racemic) [Example 77, (±)-3-(Cyclopropylmethyl)-7-(((1S,2S)-2-(4-fluorophenyl)cyclopropyl)methoxy)-8-(trifluoromethyl)-[1,2,4]triazolo[4,3-a]pyridine] | 1.7 nM
Fc1ccc([C@H]2C[C@H](Oc3ccn4c(CC5CC5)nnc4c3C(F)(F)F)C2)cc1 [Example 96, 3-(Cyclopropylmethyl)-7-((1r,3r)-3-(4-fluorophenyl)cyclobutoxy)-8-(trifluoromethyl)-[1,2,4]triazolo[4,3-a]pyridine] | 0.4 nM

same assay, conditions: clonally expressed human mGluR2 in HEK293; 1 μM forskolin, 1 μM LY-341495, 30 min; CISBIO cAMP kit; read-out: EC50 (nM), activity in mGluR2 cAMP assay

EC50 | SMILES
1.5 nM | Fc1cccc(F)c1CCOc1ccn2c(CC3CC3)nnc2c1C(F)(F)F [Example 81, 3-(Cyclopropylmethyl)-7-(2,6-difluorophenethoxy)-8-(trifluoromethyl)-[1,2,4]triazolo[4,3-a]pyridine]
4.1 nM | Fc1cc(F)cc(COc2ccn3c(CC4CC4)nnc3c2Cl)c1 [Example 76, 8-Chloro-3-(cyclopropylmethyl)-7-(3,5-difluorobenzyloxy)-[1,2,4]triazolo[4,3-a]pyridine]
1.1 nM | Fc1ccc([C@@H]2C[C@H]2COc2ccn3c(CC4CC4)nnc3c2C(F)(F)F)cc1 (single isomer, unassigned) [Example 79]
12 nM | CO[C@]1(c2ccc(F)cc2)CC[C@H](Oc2ccn3c(C4CC4(C)C)nnc3c2C(F)(F)F)CC1 (mixture of isomers) [Example 94, 3-(2,2-Dimethylcyclopropyl)-7-((1s,4s)-4-(4-fluorophenyl)-4-methoxycyclohexyloxy)-8-(trifluoromethyl)-[1,2,4]triazolo[4,3-a]pyridine]
1 nM | CO[C@]1(c2ccc(F)cc2)CC[C@H](Oc2ccn3c(CC(F)(F)F)nnc3c2C(F)(F)F)CC1 [Example 97, 7-((1s,4s)-4-(4-Fluorophenyl)-4-methoxycyclohexyloxy)-3-(2,2,2-trifluoroethyl)-8-(trifluoromethyl)-[1,2,4]triazolo[4,3-a]pyridine]
21 nM | COc1ccc(F)cc1COc1ccn2c(CC3CC3)nnc2c1Cl [Example 74, 8-Chloro-3-(cyclopropylmethyl)-7-(5-fluoro-2-methoxybenzyloxy)-[1,2,4]triazolo[4,3-a]pyridine]
3.1 nM | CO[C@]1(c2ccc(F)cc2)CC[C@H](Oc2ccn3c(C4CC4(F)F)nnc3c2C(F)(F)F)CC1 (single isomer, unassigned) [Example 88, TFA salt]
20 nM | CO[C@]1(c2ccc(F)cc2)CC[C@H](Oc2ccn3c(C4CC(F)(F)C4)nnc3c2C(F)(F)F)CC1 [Example 93, 3-(3,3-Difluorocyclobutyl)-7-((1s,4s)-4-(4-fluorophenyl)-4-methoxycyclohexyloxy)-8-(trifluoromethyl)-[1,2,4]triazolo[4,3-a]pyridine]
25 nM | FC(F)(F)c1c(OCc2ccccc2)ccn2c(CC3CC3)nnc12 (racemic) [Example 85, 7-(Benzyloxy)-3-(cyclopropylmethyl)-8-(trifluoromethyl)-[1,2,4]triazolo[4,3-a]pyridine]
61 nM | CO[C@]1(c2ccc(F)cc2)CC[C@H](Oc2ccn3c(C4CC4(F)F)nnc3c2C(F)(F)F)CC1 (single isomer, unassigned) [Example 87, TFA salt]

More lines, now with the values behind:

SMILES | EC50
COCc1nnc2c(C(F)(F)F)c(OCC(C)(C)Oc3ccc(Cl)cc3)ccn12 [Example 23, 7-(2-(4-Chlorophenoxy)-2-methylpropoxy)-3-(methoxymethyl)-8-(trifluoromethyl)-[1,2,4]triazolo[4,3-a]pyridine, TFA salt] | 120 nM
CC(C#N)(COc1ccn2c(CC3CC3)nnc2c1C(F)(F)F)c1ccc(F)cc1 (racemic) [Example 12, 3-(3-(Cyclopropylmethyl)-8-(trifluoromethyl)-[1,2,4]triazolo[4,3-a]pyridin-7-yloxy)-2-(4-fluorophenyl)-2-methylpropanenitrile, TFA salt] | 130 nM
COc1cccc(F)c1[C@H]1C[C@@H]1COc1ccn2c(CC3CC3)nnc2c1C(F)(F)F (racemic) [Example 32, (±)-3-(Cyclopropylmethyl)-7-(((1S,2S)-2-(2-fluoro-6-methoxyphenyl)cyclopropyl)methoxy)-8-(trifluoromethyl)-[1,2,4]triazolo[4,3-a]pyridine] | 0.3 nM
Clc1ccc(COc2ccn3c(CC4CC4)nnc3c2Cl)cc1 [Example 58, 8-Chloro-7-(4-chlorobenzyloxy)-3-(cyclopropylmethyl)-[1,2,4]triazolo[4,3-a]pyridine, TFA salt] | 60 nM
CC(C)(COc1ccn2c(CC3CC3)nnc2c1C(F)(F)F)Oc1ccc(F)cc1F [Example 16, 3-(Cyclopropylmethyl)-7-(2-(2,4-difluorophenoxy)-2-methylpropoxy)-8-(trifluoromethyl)-[1,2,4]triazolo[4,3-a]pyridine] | 15 nM
FC(F)(F)c1c(OC[C@@H]2C[C@H]2c2ccc(Cl)cc2)ccn2c(CC3CC3)nnc12 [Example 33, 7-(((1R,2R)-2-(4-Chlorophenyl)cyclopropyl)methoxy)-3-(cyclopropylmethyl)-8-(trifluoromethyl)-[1,2,4]triazolo[4,3-a]pyridine] | 4 nM
FC(F)(F)c1c(OCC2(c3ccc(Cl)cc3)CC2)ccn2c(CC3CC3)nnc12 [Example 29, 7-((1-(4-Chlorophenyl)cyclopropyl)methoxy)-3-(cyclopropylmethyl)-8-(trifluoromethyl)-[1,2,4]triazolo[4,3-a]pyridine] | 13 nM
O[C@]1(c2ccc(F)c(F)c2)CC[C@H](Oc2ccn3c(CC4CC4)nnc3c2C(F)(F)F)CC1 [Example 26, (1s,4s)-4-(3-(Cyclopropylmethyl)-8-(trifluoromethyl)-[1,2,4]triazolo[4,3-a]pyridin-7-yloxy)-1-(3,4-difluorophenyl)cyclohexanol, TFA salt] | 0.8 nM
COC1(c2ccc(F)cc2)CCC(Oc2ccn3c([C@@H]4C[C@H]4F)nnc3c2C(F)(F)F)CC1 (stereo partly drawn) [Example 91, 3-((1S,2R)-2-Fluorocyclopropyl)-7-((1s,4s)-4-(4-fluorophenyl)-4-methoxycyclohexyloxy)-8-(trifluoromethyl)-[1,2,4]triazolo[4,3-a]pyridine] | 83 nM
FC(F)(F)Oc1ccc(Cl)cc1COc1ccn2c(CC3CC3)nnc2c1Cl [Example 73, 8-Chloro-7-(5-chloro-2-(trifluoromethoxy)benzyloxy)-3-(cyclopropylmethyl)-[1,2,4]triazolo[4,3-a]pyridine] | 22 nM
CC(Oc1ccn2c(CC3CC3)nnc2c1Cl)c1ccc(F)cc1 (stereo not shown) [Example 59, 8-Chloro-3-(cyclopropylmethyl)-7-(1-(4-fluorophenyl)ethoxy)-[1,2,4]triazolo[4,3-a]pyridine] | 530 nM
CC(C)(COc1ccn2c(CC3CC3)nnc2c1C(F)(F)F)Oc1ccc(F)cc1 [Example 8, 3-(Cyclopropylmethyl)-7-(2-(4-fluorophenoxy)-2-methylpropoxy)-8-(trifluoromethyl)-[1,2,4]triazolo[4,3-a]pyridine] | 11 nM
COC(C)(COc1ccn2c(CC3CC3)nnc2c1C(F)(F)F)c1ccc(F)cc1 (racemic) [Example 21, 3-(Cyclopropylmethyl)-7-(2-(4-fluorophenyl)-2-methoxypropoxy)-8-(trifluoromethyl)-[1,2,4]triazolo[4,3-a]pyridine] | 31 nM
